Data taken from ChEMBL document CHEMBL4385627, “Rational approaches, design strategies, structure activity relationship and mechanistic insights for therapeutic coumarin hybrids” (Bioorg Med Chem, 2019).
Values after ≈ are worked out from the molar mass of the structure shown.

Assays:
[1] = Inhibition of rat intestinal maltase-glucoamylase using p-nitrophenyl alpha-D-glucoside as substrate preincubated for 5 mins followed by substrate addition and measured after 30 mins by spectrophotometric analysis
[2] = tested on: NCI-H157; assay: Growth inhibition of human NCI-H157 cells at 100 uM incubated for 48 hrs by SRB assay relative to control; assay type: functional; settings: NCI-H157, 48 h, read-out: GI
[3] = tested on: NCI-H157; assay: Growth inhibition of human NCI-H157 cells at 10 uM incubated for 48 hrs by SRB assay relative to control; assay type: functional; settings: NCI-H157, 48 h, read-out: GI
[4] = tested on: NCI-H157; assay: Growth inhibition of human NCI-H157 cells at 1 uM incubated for 48 hrs by SRB assay relative to control; assay type: functional; settings: NCI-H157, 48 h, read-out: GI
[5] = tested on: NCI-H157; assay: Growth inhibition of human NCI-H157 cells at 0.1 uM incubated for 48 hrs by SRB assay relative to control; assay type: functional; settings: NCI-H157, 48 h, read-out: GI
[6] = tested on: Vero; assay: Cytotoxicity against African green monkey Vero cells after 48 hrs by MTT assay; assay type: cell-based; settings: Chlorocebus sabaeus
[7] = Inhibition of calf intestinal alkaline phosphatase using p-nitrophenyl phosphate as substrate preincubated for 10 mins followed by substrate addition and measured after 30 mins by spectrometry based assay; parameters: species or system Bos taurus
[8] = target: Acetylcholinesterase (Homo sapiens, UniProt P22303); assay: Inhibition of human recombinant AchE using acetylthiocholine iodide as substrate preincubated for 5 mins followed by substrate addition and measured at 2 mins interval by Ellman's method
[9] = tested on: A549; assay: Cytotoxicity against human A549 cells incubated for 24 hrs by MTT assay; assay type: functional, cell-based; settings: A549, 24 h
[10] = Antioxidant activity assessed as ABTS radical cation scavenging ability
[11] = target: Urease (Canavalia ensiformis, UniProt P07374); assay: Inhibition of jack bean urease incubated for 30 mins by indophenol method
[12] = tested on: A498; assay: Growth inhibition of human A498 cells at 10 uM after 48 hrs by SRB assay relative to control; assay type: functional; settings: A498, 48 h, read-out: GI
[13] = tested on: Leishmania major; assay: Antileishmanial activity against Leishmania major at 100 uM incubated for 72 hrs by MTT assay relative to control; assay type: functional
[14] = tested on: Leishmania major; assay: Antileishmanial activity against Leishmania major at 10 uM incubated for 72 hrs by MTT assay relative to control; assay type: functional
[15] = tested on: Leishmania major; assay: Antileishmanial activity against Leishmania major at 1 uM incubated for 72 hrs by MTT assay relative to control; assay type: functional
[16] = tested on: Leishmania major; assay: Antileishmanial activity against Leishmania major at 0.1 uM incubated for 72 hrs by MTT assay relative to control; assay type: functional
[17] = target: Cholinesterase (Homo sapiens, UniProt P06276); assay: Inhibition of human plasma BuChE using butyrylthiocholine iodide as substrate preincubated for 5 mins followed by substrate addition and measured at 2 mins interval by Ellman's method
[18] = tested on: MDA-MB-231; assay: Cytotoxicity against human MDA-MB-231 cells incubated for 24 hrs by MTT assay; assay type: functional, cell-based; settings: MDA-MB-231, 24 h
[19] = Inhibition of calf ALR2 using DL-glyceraldehyde as substrate preincubated for 5 mins followed by NADPH addition and measured after 10 mins by spectrophotometric analysis; parameters: species or system Bos taurus
[20] = Inhibition of bovine kidney ALR1 using sodium D-glucoronic acid as substrate preincubated for 5 mins followed by NADPH addition and measured after 10 mins by spectrophotometric analysis; parameters: species or system Bos taurus
[21] = target: Amyloid-beta precursor protein (Homo sapiens) (UniProt P05067); assay: Inhibition of amyloid beta (1 to 40) (unknown origin) aggregation at 1 uM incubated for 1 hr by thioflavin T fluorescence spectroscopic method relative to control
[22] = tested on: Escherichia coli; assay: Antibacterial activity against Escherichia coli MTCC 443 by agar dilution method; assay type: functional
[23] = tested on: Candida albicans; assay: Antifungal activity against Candida albicans MTCC 227 by agar dilution method; assay type: functional
[24] = tested on: Pseudomonas aeruginosa; assay: Antibacterial activity against Pseudomonas aeruginosa MTCC 1688 by agar dilution method; assay type: functional
[25] = tested on: Staphylococcus aureus; assay: Antibacterial activity against Staphylococcus aureus MTCC 96 by agar dilution method; assay type: functional
[26] = tested on: Aspergillus clavatus; assay: Antifungal activity against Aspergillus clavatus MTCC 1323 by agar dilution method; assay type: functional
[27] = tested on: Aspergillus niger; assay: Antifungal activity against Aspergillus niger MTCC 282 by agar dilution method; assay type: functional
[28] = tested on: Rattus norvegicus; assay: Antiinflammatory activity in Wistar rat assessed as reduction in formalin-induced paw edema volume at 20 mg/kg, po administered 1 hr prior to formalin challenge and measured over 0 to 6 hrs post formalin challenge by plethysmography relative to control; assay type: functional
[29] = target: Alpha glucosidase (Homo sapiens, UniProt O43451+P10253+P14410+Q2M2H8); assay: Inhibition of alpha-glucosidase (unknown origin) using p-NPG as substrate preincubated for 5 mins followed by substrate addition and measured after 30 mins by spectrophotometric analysis; assay type: protein assay
[30] = tested on: Staphylococcus aureus; assay: Antimicrobial activity against Staphylococcus aureus incubated for 16 hrs by agar-well diffusion method; assay type: functional
[31] = tested on: Spermatozoa; assay: Spermicidal activity against human spermatozoa shaken for 10 secs by phase contrast microscopy; assay type: functional, cell-based
[32] = tested on: Trichomonas vaginalis; assay: Trichomonacidal against metronidazole-susceptible Trichomonas vaginalis after 48 hrs by trypan blue exclusion assay; assay type: functional, organism-based
[33] = tested on: HeLa; assay: Cytotoxicity against human HeLa cells after 24 hrs by MTT assay; assay type: cell-based
[34] = tested on: Lactobacillus jensenii; assay: Inhibition of Lactobacillus jensenii ATCC 25258 assessed as reduction in number of cells by measuring turbidity after 24 hrs; assay type: organism-based; settings: ATCC 25258, 24 h
[35] = tested on: HOP-92; assay: Growth inhibition of human HOP92 cells at 10 uM after 48 hrs by SRB assay relative to control; assay type: functional; settings: HOP-92, 48 h, read-out: GI
[36] = Inhibition of Saccharomyces cerevisiae alpha-glucosidase using p-nitrophenyl-alpha-D-glucopyranoside as substrate preincubated for 10 mins followed by substrate addition and measured after 30 mins by spectrophotometric analysis
[37] = tested on: MCF7; assay: Growth inhibition of human MCF7 cells by SRB assay; assay type: functional
[38] = tested on: MDA-MB-435; assay: Growth inhibition of human MDA-MB-435 cells by SRB assay; assay type: functional
[39] = tested on: Rattus norvegicus; assay: Antitumor activity against NMU challenged Sprague-Dawley rat assessed as tumor volume at 5 mg/kg, po administered once per day for 6 weeks via gavage followed by NMU post challenge for 2 weeks (reference value: 4.8 +/- 0.14 mm3); assay type: functional
[40] = Growth inhibition of BHK21 cells at 100 uM incubated for 48 hrs by SRB assay relative to control; assay type: cell-based, Mesocricetus auratus, BHK-21; settings: hamster, read-out: GI
[41] = Growth inhibition of BHK21 cells at 10 uM incubated for 48 hrs by SRB assay relative to control; assay type: cell-based, Mesocricetus auratus, BHK-21; settings: hamster, read-out: GI
[42] = Growth inhibition of BHK21 cells at 1 uM incubated for 48 hrs by SRB assay relative to control; assay type: cell-based, Mesocricetus auratus, BHK-21; settings: hamster, read-out: GI
[43] = Growth inhibition of BHK21 cells at 0.1 uM incubated for 48 hrs by SRB assay relative to control; assay type: cell-based, Mesocricetus auratus, BHK-21; settings: hamster, read-out: GI
[44] = Antioxidant activity assessed as superoxide anion radical scavenging activity by cyclic voltammetric analysis; assay type: functional

Chain of Amyloid-beta precursor protein (Homo sapiens) (P05067 whole entry): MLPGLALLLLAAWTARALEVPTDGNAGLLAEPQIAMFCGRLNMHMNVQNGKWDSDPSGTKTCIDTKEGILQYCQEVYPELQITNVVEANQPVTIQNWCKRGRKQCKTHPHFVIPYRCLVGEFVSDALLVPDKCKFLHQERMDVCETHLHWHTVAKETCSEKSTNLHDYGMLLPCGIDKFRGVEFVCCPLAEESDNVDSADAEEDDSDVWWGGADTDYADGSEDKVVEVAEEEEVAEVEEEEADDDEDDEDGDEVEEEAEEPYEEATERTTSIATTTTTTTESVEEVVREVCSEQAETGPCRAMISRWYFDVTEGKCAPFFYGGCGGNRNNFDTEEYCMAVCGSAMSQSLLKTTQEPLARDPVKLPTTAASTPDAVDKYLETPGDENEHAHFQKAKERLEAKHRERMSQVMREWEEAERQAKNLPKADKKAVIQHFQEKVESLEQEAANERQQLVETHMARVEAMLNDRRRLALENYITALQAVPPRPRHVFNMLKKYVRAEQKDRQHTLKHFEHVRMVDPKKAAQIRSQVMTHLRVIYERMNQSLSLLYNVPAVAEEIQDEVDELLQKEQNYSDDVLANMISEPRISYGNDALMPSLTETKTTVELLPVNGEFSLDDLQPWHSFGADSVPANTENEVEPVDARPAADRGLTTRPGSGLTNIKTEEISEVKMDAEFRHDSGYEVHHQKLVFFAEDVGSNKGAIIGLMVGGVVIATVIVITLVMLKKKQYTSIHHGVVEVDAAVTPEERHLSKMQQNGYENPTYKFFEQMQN
Chain of Cholinesterase (P06276 whole entry): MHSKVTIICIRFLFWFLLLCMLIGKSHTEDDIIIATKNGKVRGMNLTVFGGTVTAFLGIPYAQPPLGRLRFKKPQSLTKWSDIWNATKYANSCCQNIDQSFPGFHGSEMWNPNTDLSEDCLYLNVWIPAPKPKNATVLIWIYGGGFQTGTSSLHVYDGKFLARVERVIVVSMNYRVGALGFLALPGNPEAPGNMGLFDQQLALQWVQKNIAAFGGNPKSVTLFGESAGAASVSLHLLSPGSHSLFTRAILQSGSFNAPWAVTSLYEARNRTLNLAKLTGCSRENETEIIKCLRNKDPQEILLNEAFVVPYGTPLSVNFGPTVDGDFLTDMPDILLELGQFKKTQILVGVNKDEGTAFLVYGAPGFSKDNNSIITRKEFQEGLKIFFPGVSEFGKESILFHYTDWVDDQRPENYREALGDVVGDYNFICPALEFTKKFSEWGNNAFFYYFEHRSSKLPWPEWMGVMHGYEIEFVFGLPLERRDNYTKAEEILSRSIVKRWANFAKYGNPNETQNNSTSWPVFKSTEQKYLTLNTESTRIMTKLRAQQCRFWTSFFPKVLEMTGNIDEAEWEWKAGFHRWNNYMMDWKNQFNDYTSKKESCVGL
Chain of Acetylcholinesterase (P22303 whole entry): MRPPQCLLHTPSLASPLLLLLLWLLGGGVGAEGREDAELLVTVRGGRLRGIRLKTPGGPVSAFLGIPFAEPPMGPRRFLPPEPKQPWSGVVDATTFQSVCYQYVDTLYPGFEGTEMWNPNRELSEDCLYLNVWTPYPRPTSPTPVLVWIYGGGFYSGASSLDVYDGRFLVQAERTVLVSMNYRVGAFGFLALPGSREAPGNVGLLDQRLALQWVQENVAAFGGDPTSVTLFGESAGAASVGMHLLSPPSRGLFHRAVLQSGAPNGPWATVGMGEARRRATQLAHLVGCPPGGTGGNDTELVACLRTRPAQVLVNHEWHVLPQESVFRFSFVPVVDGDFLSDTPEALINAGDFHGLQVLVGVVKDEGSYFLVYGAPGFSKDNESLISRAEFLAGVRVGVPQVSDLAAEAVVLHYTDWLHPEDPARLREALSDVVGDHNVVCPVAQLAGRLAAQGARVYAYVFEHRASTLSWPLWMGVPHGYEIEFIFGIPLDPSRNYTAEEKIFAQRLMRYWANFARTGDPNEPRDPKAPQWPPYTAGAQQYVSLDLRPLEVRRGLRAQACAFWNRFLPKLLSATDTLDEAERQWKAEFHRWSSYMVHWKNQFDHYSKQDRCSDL
Chain of Urease (P07374 whole entry): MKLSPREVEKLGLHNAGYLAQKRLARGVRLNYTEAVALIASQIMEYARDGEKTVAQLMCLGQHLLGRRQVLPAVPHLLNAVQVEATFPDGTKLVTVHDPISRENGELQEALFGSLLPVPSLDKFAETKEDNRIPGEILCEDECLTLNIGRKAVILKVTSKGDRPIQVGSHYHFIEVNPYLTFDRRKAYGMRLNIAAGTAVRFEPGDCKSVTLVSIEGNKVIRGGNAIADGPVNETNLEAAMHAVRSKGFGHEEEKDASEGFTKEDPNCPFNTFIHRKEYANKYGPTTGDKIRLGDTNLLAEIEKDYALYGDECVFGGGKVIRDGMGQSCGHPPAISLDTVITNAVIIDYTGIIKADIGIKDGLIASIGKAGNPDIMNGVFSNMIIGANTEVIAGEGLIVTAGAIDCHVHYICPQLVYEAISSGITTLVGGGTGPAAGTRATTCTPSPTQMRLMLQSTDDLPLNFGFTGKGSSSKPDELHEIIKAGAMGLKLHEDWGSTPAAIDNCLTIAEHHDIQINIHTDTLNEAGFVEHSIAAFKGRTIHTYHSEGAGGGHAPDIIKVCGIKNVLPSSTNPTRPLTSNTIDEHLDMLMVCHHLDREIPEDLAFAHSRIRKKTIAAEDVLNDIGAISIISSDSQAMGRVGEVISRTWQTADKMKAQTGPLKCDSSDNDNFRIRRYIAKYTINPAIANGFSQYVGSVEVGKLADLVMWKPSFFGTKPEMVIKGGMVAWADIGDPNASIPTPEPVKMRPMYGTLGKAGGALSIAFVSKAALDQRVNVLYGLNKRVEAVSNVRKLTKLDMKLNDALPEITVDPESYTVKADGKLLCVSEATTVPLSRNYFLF

COc1ccccc1N1C(=O)/C(=C/c2ccc(F)cc2)S/C1=N\NC(=O)c1cc2ccccc2oc1=O
IC50 [1]: 0.38 µM

Cc1ccc(-n2c(-c3cc4ccccc4oc3=O)cs/c2=N/NC(=O)c2cc3ccccc3oc2=O)cc1C
inhibition of growth at 100 µM [2]: 65%
inhibition of growth at 10 µM [3]: 57.3%
inhibition of growth at 1 µM [4]: 53.8%
inhibition of growth at 0.1 µM [5]: 45.5%

O=Cc1c(-c2cc3cc(Br)ccc3oc2=O)[nH]c2ccccc12
IC50 [6]: 100 µM

Cc1ccc(-n2c(-c3cc4ccccc4oc3=O)cs/c2=N/NC(=O)c2cc3ccccc3oc2=O)c(C)c1
IC50 [7]: 1.38 µM

O=C(Cc1cc(=O)oc2cc(O)ccc12)NCCCNCCNCCCNc1c2c(nc3ccccc13)CCCC2
IC50 [8]: 0.038 µM

COc1ccc(-c2cc(-c3cc4ccccc4oc3=O)nc(Cc3ccc(F)cc3)n2)cc1
IC50 [9]: 16.1 µM

CCOC(=O)C(C)(C)Oc1ccc(C(=O)c2cc3cc([N+](=O)[O-])ccc3oc2=O)cc1
IC50 [10]: 18.6 µM

NC(=S)N1N=C(c2cc3ccccc3oc2=O)CC1c1ccccc1 (stereo not given)
IC50 [11]: 0.358 µM

Cc1cc(=O)oc2cc(Oc3nc(-c4ccc(B(O)O)cc4)cn4c(-c5ccc(B(O)O)cc5)cnc34)ccc12
inhibition of growth at 10 µM [12]: 90.1%

C[C@@H]1[C@H](O)[C@@H](C)/C=C/C=C/C=C/C=C/C=C/C=C/C=C/[C@H](O[C@@H]2O[C@H](C)[C@@H](O)[C@H](N)[C@@H]2O)C[C@@H]2O[C@](O)(C[C@@H](O)C[C@@H](O)[C@H](O)CC[C@@H](O)C[C@@H](O)CC(=O)O[C@H]1C)C[C@H](O)[C@H]2C(=O)O [AMPHOTERICIN B]
inhibition at 100 µM [13]: 79.8%
inhibition at 10 µM [14]: 76.3%
inhibition at 1 µM [15]: 74.8%
inhibition at 0.1 µM [16]: 69.9%

O=C(Cc1cc(=O)oc2cc(O)ccc12)NCCCCCCCNc1c2c(nc3ccccc13)CCCC2
IC50 [17]: 0.063 to 0.0635 µM

O=c1oc2ccccc2cc1-c1cc(-c2ccc(Cl)cc2)nc(Cc2ccc(F)cc2)n1
IC50 [9]: 2.15 µM
IC50 [18]: 16.5 µM

C/C(=N\Nc1nc(-c2cc3ccccc3oc2=O)cs1)c1ccc(Br)cc1
IC50 [19]: 0.11 µM
IC50 [20]: 1.71 µM

O=C(Cc1cc(=O)oc2cc(O)ccc12)NCCCCCCCCNc1c2c(nc3ccccc13)CCCC2
inhibition [21]: 82%

C/C(=N\NC(=S)Nc1ccc(F)cc1F)c1cc2ccccc2oc1=O
MIC [22]: 50 µg/mL (≈ 134 µM)
MIC [23]: 100 µg/mL (≈ 268 µM)
MIC [24]: 100 µg/mL (≈ 268 µM)
MIC [25]: 50 µg/mL (≈ 134 µM)
MIC [26]: 100 µg/mL (≈ 268 µM)
MIC [27]: 100 µg/mL (≈ 268 µM)

O=c1oc2ccc(Br)cc2cc1-c1nc2ccccc2[nH]1
inhibition in vivo at 20 mg/kg [28]: 45.5%

Cc1ccc(N2C(=O)/C(=C/c3ccc(F)cc3)S/C2=N\NC(=O)c2cc3ccccc3oc2=O)cc1
IC50 [29]: 0.11 µM
IC50 [1]: 0.07 µM

C/C(=N\Nc1nc(-c2cc3ccccc3oc2=O)cs1)c1ccccc1
IC50 [19]: 0.12 µM
IC50 [20]: 2.94 µM

C/C(=N\Nc1nc(-c2cc3ccccc3oc2=O)cs1)c1ccccc1Br
IC50 [19]: 0.16 µM
IC50 [20]: 34.7 µM

CC(C)(C)NC(=O)c1c(-c2ccccc2)nc(SCc2cc(=O)oc3ccc4ccccc4c23)[nH]c1=O
MIC [30]: 2.5 µg/mL (≈ 4.89 µM)

Nc1cc(Cl)ccc1/C(=N/Nc1nc(-c2cc3ccccc3oc2=O)cs1)c1ccccc1
IC50 [19]: 0.459 µM

O=C(c1ccc(O)cc1)C(c1c(O)c2ccccc2oc1=O)N1CCCCC1 (stereo not given)
IC50 [31]: 500 µM
IC50 [32]: 29.4 µM
IC50 [33]: 234 µg/mL (≈ 617 µM)
IC50 [34]: > 1000 µg/mL

Cc1cc(=O)oc2cc(Oc3nc(-c4ccc(B(O)O)s4)cn4c(-c5ccc(B(O)O)s5)cnc34)ccc12
inhibition of growth at 10 µM [35]: 92.3%

O=C(O)c1cn(C2CC2)c2cc(N3CCNCC3)c(F)cc2c1=O [CIPROFLOXACIN]
MIC [30]: 10 µg/mL (≈ 30.2 µM)

O=c1oc2ccc(Cl)cc2cc1-c1nc2ccccc2[nH]1
inhibition in vivo at 20 mg/kg [28]: 46.8%

O=C(N/N=C/c1cc(Cl)ccc1O)c1nc(-c2cc3ccccc3oc2=O)cs1
IC50 [36]: 8.23 µM

O=C(N/N=C/c1cc(Cl)cc(Cl)c1O)c1nc(-c2cc3ccccc3oc2=O)cs1
IC50 [36]: 6.24 µM

Cc1cccc(-n2c(-c3cc4ccccc4oc3=O)cs/c2=N/NC(=O)c2cc3ccccc3oc2=O)c1C
inhibition at 100 µM [13]: 70.4%
inhibition at 10 µM [14]: 66.2%
inhibition at 1 µM [15]: 60.7%
inhibition at 0.1 µM [16]: 53.9%

O=C(/C=C/c1ccc(OCCN2CCCCC2)cc1)c1cc2ccccc2oc1=O
GI50 [37]: < 10 µg/mL
GI50 [38]: 75.3 µg/mL (≈ 187 µM)
Activity [39]: 3.3 mm3

O=C(Nc1nc2ccccc2[nH]1)c1cc2ccccc2oc1=O
inhibition in vivo at 20 mg/kg [28]: 42.9%

Cc1cc(C)cc(-n2c(-c3cc4ccccc4oc3=O)cs/c2=N/NC(=O)c2cc3ccccc3oc2=O)c1
inhibition at 48 h, 100 µM [40]: 66.8%
inhibition at 48 h, 10 µM [41]: 64.2%
inhibition at 48 h, 1 µM [42]: 59.4%
inhibition at 48 h, 0.1 µM [43]: 55.5%

CCOC(=O)C(C)(C)Oc1ccc(C(=O)c2cc3cc(C)ccc3oc2=O)cc1
IC50 [10]: 8.51 µM

O=C(OCc1cc(=O)oc2c(O)c(O)ccc12)c1cc(O)c(O)c(O)c1
IC50 [44]: 64 µM
